Values quoted from earlier work as cited in patent US20240207481A1, “KIT OF GEL-FORMING SOLUTIONS INTENDED FOR PREPARATION OF HYDROGEL BASED ON COVALENTLY CROSSLINKED HYDROXYPHENYL DERIVATIVE OF HYALURONAN FOR PREVENTION OF POSTOPERATIVE COMPLICATIONS RELATED TO FORMATION OF COLORECTAL ANASTOMOSIS, USE OF KIT, METHOD OF PREPARATION OF HYDROGEL AND USE THREREOF” (CONTIPRO A.S., priority 2020, published 2024).

solubility in water: poorly soluble
solubility in polar organic solvents (ethanol, chloroform, isopropanol): well soluble
Structure (SMILES): Oc1cc(Cl)ccc1Oc1ccc(Cl)cc1Cl [Triclosan, 2,4,4′-trichloro-2′-hydroxydiphenyl ether]
